# Reference: patent publication US4073902A, “O-Substituted 7β-amino-3-cephem-3-ol-4-carboxylic acid compounds” (priority 1972, dated 1978)
# Key:
# K. pneumoniae 329 = experiment: oral ED50, systemic infection in mice; conditions: Klebsiella pneumoniae, 329, in Mus musculus, read-out: oral ED50
# P. vulgaris 1076 = experiment: oral ED50, systemic infection in mice; conditions: Proteus vulgaris, 1076, in Mus musculus, read-out: oral ED50
# proteus morganii 2359 = experiment: oral ED50, systemic infection in mice; conditions: Morganella morganii, 2359, in Mus musculus, read-out: oral ED50
# Escherichia coli 205 = experiment: oral ED50, systemic infection in mice; conditions: Escherichia coli, 205, in Mus musculus, read-out: oral ED50
# E. coli 9-25.1. = experiment: oral ED50, systemic infection in mice; conditions: Escherichia coli, 925.1., in Mus musculus, read-out: oral ED50
# Description: (§4) **two doses; the first administered immediately after infection, the
# E. coli 16 = experiment: oral ED50, systemic infection in mice; conditions: Escherichia coli, 16, in Mus musculus, read-out: oral ED50
# Description: as §4
# E. coli 2 = experiment: oral ED50, systemic infection in mice; conditions: Escherichia coli, 2, in Mus musculus, read-out: oral ED50
# Description: as §4
# E. coli 9 = experiment: oral ED50, systemic infection in mice; conditions: Escherichia coli, 9, in Mus musculus, read-out: oral ED50
# Description: as §4
# Shigella flexneri 11836 = experiment: oral ED50, systemic infection in mice; assay type: in vivo, Shigella flexneri; female MF 2 mice; conditions: p.o., 2 doses
# S. aureus 2999 i^+ p^+ = experiment: oral ED50, systemic infection in mice; conditions: Staphylococcus aureus, in Mus musculus, read-out: oral ED50
# Description: (§5) *single dose of antibiotic administered immediately after infection
# [1] = test system: Streptococcus pyogenes 38; experiment: oral ED50, systemic infection in mice; conditions: Streptococcus pyogenes, 38, in Mus musculus, 3 h, read-out: oral ED50
# [2] = test system: Diplococcus pneumoniae 111/84; experiment: oral ED50, systemic infection in mice; conditions: Streptococcus pneumoniae, 111/84, in Mus musculus, read-out: oral ED50
# P. mirabilis 774 = experiment: oral ED50, systemic infection in mice; conditions: Proteus mirabilis, 774, in Mus musculus, read-out: oral ED50
# in vivo = conditions: mouse, in vivo
# Description: (§1) ^a calcultated according to Miller-Tainter ± standard error (Proc.
# (§2) ^b calculated according to the Probit-method with 95% confidence
# (§3) limits (Goulden A., Methods of Statistical Analysis, J. Wiley and Sons, […]
# Pasteurella multocid 341 = experiment: oral ED50, systemic infection in mice; conditions: Pasteurella, 341, in Mus musculus, read-out: oral ED50
# E. coli 2018 = experiment: oral ED50, systemic infection in mice; conditions: Escherichia coli, 2018, in Mus musculus, read-out: oral ED50
# Description: as §4
# Serratia marcescens 344 = experiment: oral ED50, systemic infection in mice; conditions: Serratia marcescens, 344, in Mus musculus, read-out: oral ED50
# E. coli 1239/19 = experiment: oral ED50, systemic infection in mice; conditions: Escherichia coli, 1239/19, in Mus musculus, read-out: oral ED50
# Description: as §4
# [3] = test system: S. aureus 102 (methicillin res.); experiment: oral ED50, systemic infection in mice; conditions: Staphylococcus aureus, in Mus musculus, read-out: oral ED50
# Description: as §5
# E. coli 5 = experiment: oral ED50, systemic infection in mice; conditions: Escherichia coli, 5, in Mus musculus, read-out: oral ED50
# Description: as §4
# E. coli 2018 R^+TEM = experiment: oral ED50, systemic infection in mice; conditions: Escherichia coli, in Mus musculus, read-out: oral ED50
# Description: as §4
# [4] = test system: Salmonella typhimurium 273; experiment: oral ED50, systemic infection in mice; conditions: Salmonella enterica, in Mus musculus, read-out: oral ED50
# Description: as §4
# P. rettgeri 856 = experiment: oral ED50, systemic infection in mice; conditions: Providencia rettgeri, 856, in Mus musculus, read-out: oral ED50
# [5] = test system: Enterobacter cloacae P 99; experiment: oral ED50, systemic infection in mice; conditions: P99, in Mus musculus, read-out: oral ED50
# S. pyogenes Aronson = experiment: oral ED50, systemic infection in mice; conditions: Streptococcus pyogenes, in Mus musculus, read-out: oral ED50
# [6] = test system: Staphylococcus aureus 10B; experiment: oral ED50, systemic infection in mice; conditions: in Mus musculus, read-out: oral ED50
# Description: as §5
# [7] = test system: Pseudomonas aeruginosa 799; experiment: oral ED50, systemic infection in mice; conditions: Pseudomonas aeruginosa, 799, in Mus musculus, read-out: oral ED50
# E. coli 205 R^+TEM = experiment: oral ED50, systemic infection in mice; conditions: Escherichia coli, in Mus musculus, read-out: oral ED50
# Description: as §4
# S. typhimurium 277 = experiment: oral ED50, systemic infection in mice; conditions: Salmonella enterica, in Mus musculus, read-out: oral ED50
# [8] = test system: Klebsiella pneumoniae 327; experiment: oral ED50, systemic infection in mice; conditions: Klebsiella pneumoniae, 327, in Mus musculus, read-out: oral ED50
# solubility in urin = assay type: physicochemical; conditions: in words, compared with compound II
# mice = experiment: in vivo; conditions: mice; in words, compared with II and IV
# Description: as §1, §2, §3
# bactericidal activity = conditions: in words, compared with cephradin (III) and cephalexin (IV)
# [9] = test system: systemic infections due to various bacterial strains; conditions: female MF 2 mice; in words, compared with II, III, IV
Compound,ED50 (K. pneumoniae 329),ED50 (P. vulgaris 1076),ED50 (proteus morganii 2359),ED50 (Escherichia coli 205),ED50 (E. coli 9-25.1.),ED50 (E. coli 16),ED50 (E. coli 2),ED50 (E. coli 9),ED50 (Shigella flexneri 11836),ED50 (S. aureus 2999 i^+ p^+),ED50 [1],ED50 [2],ED50 (P. mirabilis 774),ED50 (Pasteurella multocid 341),ED50 (E. coli 2018),ED50 (Serratia marcescens 344),ED50 (E. coli 1239/19),ED50 [3],ED50 (E. coli 5),ED50 (E. coli 2018 R^+TEM),further results
COC1=C(C(=O)O)N2C(=O)[C@@H](NC(=O)[C@H](N)c3ccccc3)[C@H]2SC1 [compound II],35 mg/kg,25 mg/kg,> 300 mg/kg,22 mg/kg,> 300 mg/kg,> 300 mg/kg,> 1000 mg/kg,210 mg/kg,20 mg/kg,210 mg/kg,7.5 mg/kg,16 mg/kg,54 mg/kg,~20 mg/kg,15 mg/kg,> 1000 mg/kg,12 mg/kg,100 mg/kg,13 mg/kg,38 mg/kg,LD50 (in vivo; ip): 3800 ± 290 mg/kg; LD50 (in vivo; po): > 6000 mg/kg; ED50 [4]: 60 mg/kg; ED50 (P. rettgeri 856): 14 mg/kg; ED50 [5]: > 300 mg/kg; ED50 (S. pyogenes Aronson): 2.5 mg/kg; ED50 [6]: 6 mg/kg; ED50 [7]: > 300 mg/kg; ED50 (E. coli 205 R^+TEM): 48 mg/kg; ED50 (S. typhimurium 277): 65 mg/kg; ED50 [8]: 75 mg/kg
CC1=C(C(=O)O)N2C(=O)[C@@H](NC(=O)[C@H](N)c3ccccc3)[C@H]2SC1 [cephalexin],47 mg/kg,45 mg/kg,> 1000 mg/kg,40 mg/kg,> 300 mg/kg,> 300 mg/kg,> 1000 mg/kg,90 mg/kg,7 mg/kg,85 mg/kg,6 mg/kg,30 mg/kg,80 mg/kg,66 mg/kg,13 mg/kg,> 300 mg/kg,20 mg/kg,120 mg/kg,28 mg/kg,25 mg/kg,ED50 [4]: 140 mg/kg; ED50 (P. rettgeri 856): 15 to 30 mg/kg; ED50 [5]: > 300 mg/kg; ED50 (S. pyogenes Aronson): 6.3 mg/kg; ED50 [6]: 6.6 mg/kg; ED50 [7]: > 1000 mg/kg; ED50 (E. coli 205 R^+TEM): 40 mg/kg; ED50 (S. typhimurium 277): 100 mg/kg; ED50 [8]: 105 mg/kg
CC1=C(C(=O)O)N2C(=O)[C@@H](NC(=O)[C@H](N)C3=CCC=CC3)[C@H]2SC1 [cephradine],120 mg/kg,80 mg/kg,> 1000 mg/kg,52 mg/kg,> 300 mg/kg,> 300 mg/kg,> 300 mg/kg,≥ 300 mg/kg,11 mg/kg,32 mg/kg,8 mg/kg,40 mg/kg,~50 mg/kg,110 mg/kg,13 mg/kg,> 1000 mg/kg,~25 mg/kg,76 mg/kg,> 30 mg/kg,38 mg/kg,ED50 [4]: 80 mg/kg; ED50 (P. rettgeri 856): ≥ 30 mg/kg; ED50 [5]: > 1000 mg/kg; ED50 (S. pyogenes Aronson): 5.5 mg/kg; ED50 [6]: 6 mg/kg; ED50 [7]: > 300 mg/kg; ED50 (E. coli 205 R^+TEM): 16 mg/kg; ED50 (S. typhimurium 277): 110 mg/kg; ED50 [8]: 250 mg/kg
COC1=C(C(=O)O)N2C(=O)[C@@H](NC(=O)[C@H](N)C3=CCC=CC3)[C@H]2SC1 [compound I],17 mg/kg,20 mg/kg,> 300 mg/kg,9.5 mg/kg,≥ 300 mg/kg,> 300 mg/kg,~140 mg/kg,~30 mg/kg,25 mg/kg,25 mg/kg,1 mg/kg,8.5 mg/kg,16 mg/kg,17 mg/kg,3 mg/kg,> 300 mg/kg,4 mg/kg,17.5 mg/kg,7.8 mg/kg,14 mg/kg,solubility in urin (solubility in urin): higher as compared to compound II; acute toxicity (mice): more favourable as the acute toxicity of compounds II and IV; LD50 (in vivo; ip): 7090 mg/kg; LD50 (in vivo; po): > 6000 mg/kg; bactericidal activity (bactericidal activity): surprisingly stronger bactericidal activity as compared to cephradin (III) and cephalexin (IV); chemotherapeutic activity [9]: surprisingly stronger chemotherapeutic activity; ED50 [4]: 30 mg/kg; ED50 (P. rettgeri 856): 6.8 mg/kg; ED50 [5]: > 300 mg/kg; ED50 (S. pyogenes Aronson): 1 mg/kg; ED50 [6]: 3.3 mg/kg; ED50 [7]: > 300 mg/kg; ED50 (E. coli 205 R^+TEM): 7.3 mg/kg; ED50 (S. typhimurium 277): 30 mg/kg; ED50 [8]: 40 mg/kg
